Molecules are shown by their SMILES.

The test system of the first assay is NOMO-1. The experiment in a line: cells. Format: functional, cell-based, Homo sapiens. Conditions: Homo sapiens, NOMO-1.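 Further: growth inhibition of human NOMO-1 cells measured by a cell viability assay.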
Description: SANGER: Inhibition of human NOMO-1 cell growth in a cell viability assay.
For `CN(NC(=O)CC(=O)NN(C)C(=S)c1ccccc1)C(=S)c1ccccc1` [ELESCLOMOL], the IC50 (in general, the point on the concentration scale where inhibition reaches its midpoint) was greater than 200 nM.

In another assay the test system is LB1047-RCC. The experiment in a line: cells. It is filed as functional, cell-based, Homo sapiens. Conditions: Homo sapiens, LB1047-RCC.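 Further: inhibition of cell growth, determined with a cell viability assay.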
Description: SANGER: Inhibition of human LB1047-RCC cell growth in a cell viability assay.
The molecule `CN(NC(=O)CC(=O)NN(C)C(=S)c1ccccc1)C(=S)c1ccccc1` [ELESCLOMOL] displayed an IC50 of 10.7 nM.

Another assay has as its system RPMI-8226. Put plainly: cells. Format: functional, cell-based, Homo sapiens. Conditions: Homo sapiens, RPMI-8226.
Description: SANGER: Inhibition of human RPMI-8226 cell growth in a cell viability assay.
Molecule `CN(NC(=O)CC(=O)NN(C)C(=S)c1ccccc1)C(=S)c1ccccc1` [ELESCLOMOL] returned an IC50 of 46 nM.

The next assay concerns RH-1. Put plainly: cells. Format: functional, cell-based, Homo sapiens. Conditions: Homo sapiens, RH-1.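 Further: growth inhibition of human RH-1 cells, read out with a cell viability assay.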
Description: SANGER: Inhibition of human RH-1 cell growth in a cell viability assay.
Turning to `CN(NC(=O)CC(=O)NN(C)C(=S)c1ccccc1)C(=S)c1ccccc1` [ELESCLOMOL], the IC50 was determined as 58.2 nM.

In a further assay the test system is P30-OHK. Put plainly: cells. Conditions: Homo sapiens, P30-OHK. Format: functional, cell-based, Homo sapiens.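 Further: growth inhibition of the P30-OHK cell line, read out with a cell viability assay.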
Description: SANGER: Inhibition of human P30-OHK cell growth in a cell viability assay.
For `CN(NC(=O)CC(=O)NN(C)C(=S)c1ccccc1)C(=S)c1ccccc1` [ELESCLOMOL], the IC50 was greater than 200 nM.

A further assay deals with LU-139. The experiment in a line: cells. It is filed as functional, cell-based, Homo sapiens. Conditions: Homo sapiens, LU-139.
Description: SANGER: Inhibition of human LU-139 cell growth in a cell viability assay.
Take `CN(NC(=O)CC(=O)NN(C)C(=S)c1ccccc1)C(=S)c1ccccc1` [ELESCLOMOL]: the IC50 was found to be 121 nM.

For the next assay, the system named is COLO-668. Put plainly: cells. Format: functional, cell-based, Homo sapiens. Conditions: Homo sapiens, COLO-668.
Description: SANGER: Inhibition of human COLO-668 cell growth in a cell viability assay.
Turning to `CN(NC(=O)CC(=O)NN(C)C(=S)c1ccccc1)C(=S)c1ccccc1` [ELESCLOMOL], the IC50 was greater than 200 nM.

In the next assay the test system is ATN-1. The experiment in a line: cells. Conditions: Homo sapiens, ATN-1. It is filed as functional, cell-based, Homo sapiens.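 Further: growth inhibition of human ATN-1 cells, read out with a cell viability assay.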
Description: SANGER: Inhibition of human ATN-1 cell growth in a cell viability assay.
Take `CN(NC(=O)CC(=O)NN(C)C(=S)c1ccccc1)C(=S)c1ccccc1` [ELESCLOMOL]: the IC50 was greater than 200 nM.

The test system of the next assay is HCC1187. Put plainly: cells. It is filed as functional, cell-based, Homo sapiens. Conditions: Homo sapiens, HCC1187.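 Further: growth inhibition of HCC1187 cells, read out with a cell viability assay.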
Description: SANGER: Inhibition of human HCC1187 cell growth in a cell viability assay.
Regarding `CN(NC(=O)CC(=O)NN(C)C(=S)c1ccccc1)C(=S)c1ccccc1` [ELESCLOMOL], the IC50 was 79.3 nM.

A further assay relates to NCI-H1355. Put plainly: cells. It is filed as functional, cell-based, Homo sapiens. Conditions: Homo sapiens, NCI-H1355.
Description: SANGER: Inhibition of human NCI-H1355 cell growth in a cell viability assay.
Molecule `CN(NC(=O)CC(=O)NN(C)C(=S)c1ccccc1)C(=S)c1ccccc1` [ELESCLOMOL] had an IC50 of 8.89 nM.

In a further assay the test system is LNCaP-Clone-FGC. The experiment in a line: cells. Conditions: Homo sapiens, LNCaP-Clone-FGC. It is filed as functional, cell-based, Homo sapiens.
Description: SANGER: Inhibition of human LNCaP-Clone-FGC cell growth in a cell viability assay.
As to `CN(NC(=O)CC(=O)NN(C)C(=S)c1ccccc1)C(=S)c1ccccc1` [ELESCLOMOL], it took 7.73 nM to reach half-maximal inhibition (IC50).

For a further assay, the system named is SF-268. Put plainly: cells. It is filed as functional, cell-based, Homo sapiens. Conditions: Homo sapiens, SF-268.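 Further: growth inhibition of SF-268 cells determined with a cell viability assay.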
Description: SANGER: Inhibition of human SF268 cell growth in a cell viability assay.
For the molecule `CN(NC(=O)CC(=O)NN(C)C(=S)c1ccccc1)C(=S)c1ccccc1` [ELESCLOMOL], it took 12.9 nM to reach half-maximal inhibition (IC50).

Another assay has as its system HEL. Put plainly: cells. Format: functional, cell-based, Homo sapiens. Conditions: Homo sapiens, HEL.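 Further: growth inhibition of HEL cells, read out with a cell viability assay.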
Description: SANGER: Inhibition of human HEL cell growth in a cell viability assay.
`CN(NC(=O)CC(=O)NN(C)C(=S)c1ccccc1)C(=S)c1ccccc1` [ELESCLOMOL] displayed an IC50 of 7.08 nM.

A further assay concerns CAS-1. Put plainly: cells. Format: functional, cell-based, Homo sapiens. Conditions: Homo sapiens, CAS-1.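 Further: growth inhibition of CAS-1 cells, measured with a cell viability assay.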
Description: SANGER: Inhibition of human CAS-1 cell growth in a cell viability assay.
`CN(NC(=O)CC(=O)NN(C)C(=S)c1ccccc1)C(=S)c1ccccc1` [ELESCLOMOL] gave an IC50 of 116 nM.

The next assay has as its system GCIY. Put plainly: cells. Conditions: Homo sapiens, GCIY. It is filed as functional, cell-based, Homo sapiens.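 Further: growth inhibition of the human GCIY cell line, read out by a cell viability assay.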
Description: SANGER: Inhibition of human GCIY cell growth in a cell viability assay.
In turn, `CN(NC(=O)CC(=O)NN(C)C(=S)c1ccccc1)C(=S)c1ccccc1` [ELESCLOMOL] had an IC50 greater than 200 nM.

The next assay relates to ES7. Put plainly: cells. Format: functional, cell-based, Homo sapiens. Conditions: Homo sapiens, ES7.
Description: SANGER: Inhibition of human ES7 cell growth in a cell viability assay.
In the case of `CN(NC(=O)CC(=O)NN(C)C(=S)c1ccccc1)C(=S)c1ccccc1` [ELESCLOMOL], it took 3.59 nM to reach half-maximal inhibition (IC50).

In a further assay the test system is TE-8. The experiment in a line: cells. Conditions: Homo sapiens, TE-8. It is filed as functional, cell-based, Homo sapiens.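 Further: growth inhibition of TE-8 cells, measured with a cell viability readout.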
Description: SANGER: Inhibition of human TE-8 cell growth in a cell viability assay.
`CN(NC(=O)CC(=O)NN(C)C(=S)c1ccccc1)C(=S)c1ccccc1` [ELESCLOMOL] had a half-inhibitory concentration (IC50) of 5.41 nM.

The next assay concerns KNS-42. The experiment in a line: cells. Format: functional, cell-based. Conditions: Homo sapiens.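 Further: growth inhibition of KNS-42 cells, read out with a cell viability assay.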
Description: SANGER: Inhibition of human KNS-42 cell growth in a cell viability assay.
`CN(NC(=O)CC(=O)NN(C)C(=S)c1ccccc1)C(=S)c1ccccc1` [ELESCLOMOL] registered an IC50 greater than 200 nM.

The subject of another assay is CTV-1. Put plainly: cells. It is filed as functional, cell-based, Homo sapiens. Conditions: Homo sapiens, CTV-1.
Description: SANGER: Inhibition of human CTV-1 cell growth in a cell viability assay.
`CN(NC(=O)CC(=O)NN(C)C(=S)c1ccccc1)C(=S)c1ccccc1` [ELESCLOMOL] showed an IC50 greater than 200 nM.

Another assay relates to HAL-01. Put plainly: cells. Format: functional, cell-based, Homo sapiens. Conditions: Homo sapiens, HAL-01.
Description: SANGER: Inhibition of human HAL-01 cell growth in a cell viability assay.
Regarding `CN(NC(=O)CC(=O)NN(C)C(=S)c1ccccc1)C(=S)c1ccccc1` [ELESCLOMOL], half-maximal inhibition (IC50) required 128 nM.

The next assay relates to CW-2. The experiment in a line: cells. Format: functional, cell-based, Homo sapiens. Conditions: Homo sapiens, CW-2.
Description: SANGER: Inhibition of human CW-2 cell growth in a cell viability assay.
Molecule `CN(NC(=O)CC(=O)NN(C)C(=S)c1ccccc1)C(=S)c1ccccc1` [ELESCLOMOL] registered a concentration for half-maximal inhibition (IC50) greater than 200 nM.

A further assay concerns EW-18. The experiment in a line: cells. Conditions: Homo sapiens, EW-18; read-out: IC50. Format: functional, cell-based, Homo sapiens.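 Further: growth inhibition of EW-18 cells, read out by a cell viability assay.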
Description: SANGER: Inhibition of human EW-18 cell growth in a cell viability assay.
As to `CN(NC(=O)CC(=O)NN(C)C(=S)c1ccccc1)C(=S)c1ccccc1` [ELESCLOMOL], the IC50 is greater than 200 nM.

The subject of another assay is HCC2218. The experiment in a line: cells. Format: functional, cell-based, Homo sapiens. Conditions: Homo sapiens, HCC2218.
Description: SANGER: Inhibition of human HCC2218 cell growth in a cell viability assay.
The molecule `CN(NC(=O)CC(=O)NN(C)C(=S)c1ccccc1)C(=S)c1ccccc1` [ELESCLOMOL] showed an IC50 greater than 200 nM.

For the next assay, the system named is NEC8. The experiment in a line: cells. It is filed as functional, cell-based, Homo sapiens. Conditions: Homo sapiens, NEC8.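 Further: growth inhibition of human NEC8 cells, read out by a cell viability assay.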
Description: SANGER: Inhibition of human NEC8 cell growth in a cell viability assay.
`CN(NC(=O)CC(=O)NN(C)C(=S)c1ccccc1)C(=S)c1ccccc1` [ELESCLOMOL]: the IC50 was 11.5 nM.

Source of the values: ChEMBL document CHEMBL1201861, “Genomics of Drug Sensitity in Cancer screening data, Wellcome Trust Sanger Institute”.
